Measurements published in patent publication US12180187B2, “1-phenyl-5-azinylpyrazolyl-3-oxyalkyl acids and their use for controlling unwanted plant growth” (BAYER AKTIENGESELLSCHAFT, priority 2019, dated 2024).

Legend:
VIOTR = experiment: Pre-emergence action at 320 g/ha against VIOTR; format: in vivo, Viola tricolor; conditions: dosage 320 g/ha
Outline: (§1)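 Weed and crop seeds sown in pots and covered with soil; WP or EC formulations sprayed pre-emergence onto the soil surface at 320 g/ha with 0.5% additive in 600 l/ha water. Kept in greenhouse; after about 3 weeks activity scored visually as % versus untreated controls (100% = plants dead, 0% = as control).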

ALOMY [1] = experiment: Pre-emergence action against ALOMY, 1280 g/ha; format: in vivo, Alopecurus myosuroides; conditions: visual scoring after about 3 weeks vs untreated controls, 100% = plants have died, 0% = like control plants
Outline: (§2)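 Percent herbicidal effect, judged by eye relative to untreated pots around 3 weeks after soil-surface treatment. Application: formulated compound in water, 600 L/ha, 0.5% additive, on soil over sown seeds; greenhouse.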

LOLRI [2] = experiment: Post-emergence action against LOLRI, 1.28 kg/ha; format: in vivo, Lolium rigidum; conditions: dosage 1280 g/ha, visual rating about 3 weeks after treatment vs untreated controls
Outline: (§3)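 Visual rating against untreated plants about 3 weeks after spraying gives % activity, where 0% means like controls and 100% means plants died. Plants were treated post-emergence at the one-leaf stage with compound formulated as wettable powder or emulsion concentrate, applied at 600 L water/ha plus 0.5% additive.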

SETVI [3] = experiment: Pre-emergence action at 320 g/ha against SETVI; format: in vivo, Setaria viridis; conditions: visual scoring after about 3 weeks vs untreated controls
Outline: as §1

LOLRI [4] = experiment: Pre-emergence action at 320 g/ha against LOLRI; format: in vivo, Lolium rigidum; conditions: visual scoring after about 3 weeks vs untreated controls
Outline: as §1

VERPE [5] = experiment: Pre-emergence action at 320 g/ha against VERPE; format: in vivo, Veronica persica; conditions: visual scoring after about 3 weeks vs untreated controls
Outline: as §1

AMARE [6] = experiment: Post-emergence action against AMARE, 1.28 kg/ha; format: in vivo, Amaranthus retroflexus; conditions: dosage 1280 g/ha, visual rating about 3 weeks after treatment vs untreated controls (100% = plants died)
Outline: as §3

AMARE [7] = experiment: Pre-emergence action against AMARE, 1280 g/ha; format: in vivo, Amaranthus retroflexus; conditions: scored visually after about 3 weeks vs untreated controls (100% = plants have died)
Outline: as §2

ALOMY [8] = experiment: Post-emergence action against ALOMY, 1.28 kg/ha; format: in vivo, Alopecurus myosuroides; conditions: dosage 1280 g/ha, visual rating about 3 weeks after treatment vs untreated controls
Outline: as §3

POAAN [9] = experiment: Post-emergence action against POAAN, 1.28 kg/ha; format: in vivo, Poa annua; conditions: dosage 1280 g/ha, visual rating about 3 weeks after treatment vs untreated controls
Outline: as §3

VERPE [10] = experiment: Pre-emergence action against VERPE, 1280 g/ha; format: in vivo, Veronica persica; conditions: scored visually after about 3 weeks vs untreated controls (100% = plants have died)
Outline: as §2

DIGSA [11] = experiment: Pre-emergence action at 320 g/ha against DIGSA; format: in vivo, Digitaria sanguinalis; conditions: visual scoring after about 3 weeks vs untreated controls
Outline: as §1

ECHCG [12] = experiment: Pre-emergence action against ECHCG, 1280 g/ha; format: in vivo, Echinochloa crus-galli; conditions: visual scoring after about 3 weeks vs untreated controls, 100% = plants have died, 0% = like control plants
Outline: as §2

AVEFA = experiment: Pre-emergence action at 320 g/ha against AVEFA; format: in vivo; conditions: visual scoring after about 3 weeks vs untreated controls
Outline: as §1

POAAN [13] = experiment: Pre-emergence action against POAAN, 1280 g/ha; format: in vivo, Poa annua; conditions: visual scoring after about 3 weeks vs untreated controls, 100% = plants have died, 0% = like control plants
Outline: as §2

ALOMY [14] = experiment: Pre-emergence action at 320 g/ha against ALOMY; format: in vivo, Alopecurus myosuroides; conditions: scored visually after about 3 weeks vs untreated controls (100% = plants have died)
Outline: as §1

DIGSA [15] = experiment: Post-emergence action against DIGSA, 1.28 kg/ha; format: in vivo, Digitaria sanguinalis; conditions: dosage 1280 g/ha, visual rating about 3 weeks after treatment vs untreated controls
Outline: as §3

DIGSA [16] = experiment: Pre-emergence action against DIGSA, 1280 g/ha; format: in vivo, Digitaria sanguinalis; conditions: visual scoring after about 3 weeks vs untreated controls, 100% = plants have died, 0% = like control plants
Outline: as §2

VERPE [17] = experiment: Post-emergence action against VERPE, 1.28 kg/ha; format: in vivo, Veronica persica; conditions: dosage 1280 g/ha, visual rating about 3 weeks after treatment vs untreated controls (100% = plants died)
Outline: as §3

SETVI [18] = experiment: Pre-emergence action against SETVI, 1280 g/ha; format: in vivo, Setaria viridis; conditions: visual scoring after about 3 weeks vs untreated controls, 100% = plants have died, 0% = like control plants
Outline: as §2

MATIN [19] = experiment: Pre-emergence action against MATIN, 1280 g/ha; format: in vivo, Tripleurospermum inodorum (Matricaria inodora); conditions: scored visually after about 3 weeks vs untreated controls (100% = plants have died)
Outline: as §2

ECHCG [20] = experiment: Post-emergence action against ECHCG, 1.28 kg/ha; format: in vivo, Echinochloa crus-galli; conditions: dosage 1280 g/ha, visual rating about 3 weeks after treatment vs untreated controls
Outline: as §3

POLCO = experiment: Pre-emergence action at 320 g/ha against POLCO; format: in vivo, Fallopia convolvulus (Polygonum convolvulus); conditions: visual scoring after about 3 weeks vs untreated controls
Outline: as §1

MATIN [21] = experiment: Pre-emergence action at 320 g/ha against MATIN; format: in vivo, Tripleurospermum inodorum (Matricaria inodora); conditions: visual scoring after about 3 weeks vs untreated controls
Outline: as §1

AMARE [22] = experiment: Pre-emergence action at 320 g/ha against AMARE; format: in vivo, Amaranthus retroflexus; conditions: visual scoring after about 3 weeks vs untreated controls
Outline: as §1

ABUTH [23] = experiment: Post-emergence action against ABUTH, 1.28 kg/ha; format: in vivo, Abutilon theophrasti; conditions: dosage 1280 g/ha, visual rating about 3 weeks after treatment vs untreated controls (100% = plants died)
Outline: as §3

LOLRI [24] = experiment: Pre-emergence action against LOLRI, 1280 g/ha; format: in vivo, Lolium rigidum; conditions: visual scoring after about 3 weeks vs untreated controls, 100% = plants have died, 0% = like control plants
Outline: as §2

ECHGC = experiment: Pre-emergence action at 320 g/ha against ECHGC; format: in vivo, Echinochloa crus-galli; conditions: visual scoring after about 3 weeks vs untreated controls
Outline: as §1

ABUTH [25] = experiment: Pre-emergence action at 320 g/ha against ABUTH; format: in vivo, Abutilon theophrasti; conditions: greenhouse, scored visually after about 3 weeks vs untreated controls, 100% = plants have died, 0% = like control plants
Source text: b) Seeds of monocotyledonous and dicotyledonous weed plants and crop plants are placed in plastic or organic planting pots and covered with soil. The compounds of the invention, formulated in the form of wettable powders (WP) or as emulsion concentrates (EC), are then applied onto the surface of the covering soil as aqueous suspension or emulsion with addition of 0.5% additive at a water application rate of 600 l/ha (converted). After the treatment, the pots are placed in a greenhouse and kept under good growth conditions for the trial plants. After about 3 weeks, the effect of the preparations is scored visually in comparison with untreated controls as percentages. For example, 100% activity=the plants have died, 0% activity=like control plants. Tables 13 to 26 below show the effects of selected compounds of the general formula (I) on various harmful plants and at an application rate corresponding to 320 g/ha, which were obtained by the experimental procedure mentioned above.

STEME = experiment: Pre-emergence action against STEME, 1280 g/ha; format: in vivo, Stellaria media; conditions: scored visually after about 3 weeks vs untreated controls (100% = plants have died)
Outline: as §2

PHBPU = experiment: Pre-emergence action at 320 g/ha against PHBPU; format: in vivo; conditions: visual scoring after about 3 weeks vs untreated controls
Outline: as §1

SMILES	Pre-emergence action against VIOTR in % (VIOTR) [%]	Pre-emergence action against SETVI in % (SETVI [3]) [%]	Pre-emergence action against LOLRI in % (LOLRI [4]) [%]	Pre-emergence action against VERPE in % (VERPE [5]) [%]	Pre-emergence action against DIGSA in % (DIGSA [11]) [%]	Pre-emergence action against AVEFA in % (AVEFA) [%]	Pre-emergence action at 320 g/ha against ALOMY in % (ALOMY [14]) [%]	Pre-emergence action against POLCO in % (POLCO) [%]	Pre-emergence action against MATIN in % (MATIN [21]) [%]	Pre-emergence action against AMARE in % (AMARE [22]) [%]	Pre-emergence action against ECHGC in % (ECHGC) [%]	Pre-emergence action at 320 g/ha against ABUTH in % (ABUTH [25]) [%]	other results
CON(C)C(=O)COc1nn(-c2ccccc2F)c(-c2ccc(F)nc2)c1Br [Example X-019]	100	100	100	100	100	80	100	90	100	100	100	80	Pre-emergence action against ALOMY (ALOMY [1]): 100%; Post-emergence action against LOLRI (LOLRI [2]): 90%; Post-emergence action against AMARE (AMARE [6]): 90%; Pre-emergence action against AMARE (AMARE [7]): 100%; Post-emergence action against ALOMY (ALOMY [8]): 100%; Post-emergence action against POAAN (POAAN [9]): 100%; Pre-emergence action against VERPE (VERPE [10]): 90%; Pre-emergence action against ECHCG (ECHCG [12]): 100%; Pre-emergence action against POAAN (POAAN [13]): 100%; Post-emergence action against DIGSA (DIGSA [15]): 90%; Pre-emergence action against DIGSA (DIGSA [16]): 100%; Post-emergence action against VERPE (VERPE [17]): 90%; Pre-emergence action against SETVI (SETVI [18]): 100%; Pre-emergence action against MATIN (MATIN [19]): 100%; Post-emergence action against ECHCG (ECHCG [20]): 100%; Post-emergence action against ABUTH (ABUTH [23]): 90%; Pre-emergence action against LOLRI (LOLRI [24]): 100%; Pre-emergence action against STEME (STEME): 90%
CCOC(=O)CN(C)S(=O)(=O)NC(=O)COc1nn(-c2ccccc2F)c(-c2ccc(F)nc2)c1Br [Example X-031]	90	100	80	90	100	80	90	80	80	90	80	80	Pre-emergence action against PHBPU in % (PHBPU): 90%
